Experimental findings from PMC7562955 (Nature Communications, 2020) are described below.

Each structure is given as a SMILES string.

The subject of this test is TLR7. The experiment in a line: Glutaraldehyde crosslinking assay of ligand-induced TLR7 dimerization. It counts as biochemical, Monkey (Macaca mulatta). The following applies: for ligand-induced TLR7 dimerization: neutral or acidic pH. Here is the method: The recombinant TLR7 proteins expressed in Drosophila S2 cells (Thermo Fisher Scientific) using Monkey (Macaca mulatta) TLR7 extracellular domain expression construct with N167Q, N399Q, N488Q and N799Q mutations and cleavable Z-loop and C-terminal protein A tag were prepared and were stored in a buffer containing 10 mM Tris-HCl pH 7.5 and 150 mM NaCl at concentrations of 10–15 mg ml^−1. Briefly, the purification steps included IgG affinity purification, the Z-loop and the protein A tag cleavage, and gel-filtration chromatography. Glycan-trimmed TLR7 proteins, expressed in the presence of 1.5 mg l^−1 kifunensine (Glycosyn) and treated by Endo Hf (New England Biolabs) were used for crystallization. Glycan-untrimmed proteins were used in ITC analysis, crosslinking assay, negative-staining EM and cryo-EM (200 kV microscopes) analyses. Glycan-trimmed TLR7 proteins with partially-uncleaved protein A tag were used for cryo-EM analysis using Tatan Krios (Supplementary Fig. 11).
For glutaraldehyde crosslinking assay (Fig. 2b), proteins were buffer exchanged into a buffer containing 10 mM HEPES-NaOH, pH 8.0, 150 mM NaCl and were concentrated to ~13 mg/ml using Amicon Ultra devices (Merck). Protein concentrations were adjusted to 25 µM using buffers containing 10 mM HEPES-NaOH, pH 7.0, 150 mM NaCl (for neutral condition) or 50 mM citrate-NaOH pH 5.0, 150 mM NaCl (for acidic condition). Cpd-3, Cpd-6 or Cpd-7 were added to final concentrations of 100 or 1000 µM. The reactions were started by adding glutaraldehyde (Wako) to a final concentration of 5 mM (for neutral condition) or 20 mM (for acidic condition), incubated at ambient temperature for 25 min and quenched by adding Tris-HCl pH 7.5 to a final concentration of 100 mM. Crosslinked samples were analyzed by non-reducing SDS-PAGE. Quantitative analysis of the SDS-PAGE gel image was performed with Image-J.

Where [1] appears, read: pH 5.0, ligand + (100 or 1000 µM used).
[2] abbreviates: pH 5.0, ligand ++ (100 or 1000 µM used).
Where [3] appears, read: pH 7.0, ligand + (100 or 1000 µM used).
The mark [4] stands for this setting: pH 7.0, ligand ++ (100 or 1000 µM used).

Regarding `CCOc1nc(N)c2nc(-c3cncc(F)c3)n(Cc3ccc(CN4C[C@@H]5C[C@H]4CN5C)cc3)c2n1` [Cpd-6], the “ligand-induced TLR7 dimerization” value is “increased only in acidic conditions”. Besides, under setting [1], the “Band intensity Dimer” value is given as 8170.97 and the “Band intensity Monomer” value is 16240. Under setting [2], the “Band intensity Dimer” value is on record as 8032.26 and the “Band intensity Monomer” value turned out to be 12976. Under setting [3], the “Band intensity Dimer” value came to 10536.9 and the “Band intensity Monomer” value came to 14418. Further, under setting [4], the “Band intensity Dimer” value was determined as 14285.1 and the “Band intensity Monomer” value is recorded as 11832.4.

With `CCOc1nc(C)c2nc(-c3cncc(F)c3)n(Cc3ccc(CN4C[C@@H]5C[C@H]4CN5C)cc3)c2n1` [Cpd-7], the “ligand-induced TLR7 dimerization” value is “increased only in acidic conditions”. Under setting [1], the “Band intensity Dimer” value was 8301.55 and the “Band intensity Monomer” value was 16518.6. Moreover, under setting [2], the “Band intensity Dimer” value amounted to 8600.5 and the “Band intensity Monomer” value came to 15510.2. Under setting [3], the “Band intensity Dimer” value is given as 9334.79 and the “Band intensity Monomer” value was 16326.2. Also, under setting [4], the “Band intensity Dimer” value was determined as 12602.5 and the “Band intensity Monomer” value is listed as 14640.4.
